# Measured values: US7902373B2 (Pfizer Inc, priority 2006, dated 2011)
# Target: human recombinant H-PGDS (Homo sapiens, UniProt O60760)
# Assay: Fluorescence intensity h-PGDS TBA enzyme assay
# Assay type: biochemical
# Details: Examples up to 622 (and 3a, 3b)
# Chain of human recombinant H-PGDS (O60760 whole entry): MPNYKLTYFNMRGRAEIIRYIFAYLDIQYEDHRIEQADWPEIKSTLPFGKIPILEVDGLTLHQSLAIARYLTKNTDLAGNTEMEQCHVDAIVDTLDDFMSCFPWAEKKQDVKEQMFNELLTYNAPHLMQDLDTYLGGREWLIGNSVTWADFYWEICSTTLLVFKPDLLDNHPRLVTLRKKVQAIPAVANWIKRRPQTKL
row,Compound,IC50 [nM]
1,"COc1ccc(CN2CCC(NC(=O)c3ccc(-c4cccc(F)c4)nc3)CC2)cc1OCC(F)F [Example 425, N-{1-[3-(2,2-Difluoroethyoxy)-4-methoxybenzyl]piperidin-4-yl}-6-(3-fluorophenyl)nicotinamide]",2.81
2,"O=C(NC1CCN(Cc2coc(-c3ccccc3)n2)CC1)c1ccc(-c2cccc(F)c2)nc1 [Example 426, 6-(3-Fluorophenyl)-N-{1-[(2-phenyl-1,3-oxazol-4-yl)methyl]piperidin-4-yl}nicotinamide]",5.53
3,"CCCn1cc(CN2CCC(NC(=O)c3ccc(-c4cccc(F)c4)nc3)CC2)c(C)n1 [Example 427, 6-(3-Fluorophenyl)-N-{1-[(3-methyl-1-propyl-1H-pyrazol-4-yl)methyl]piperidin-4-yl}nicotinamide]",0.656
4,"CC(C)Oc1ccc(CN2CCC(NC(=O)c3ccc(-c4cccc(F)c4)nc3)CC2)cc1CO [Example 428, 6-(3-Fluorophenyl)-N-{1-[3-(hydroxymethyl)-4-isopropoxybenzyl]piperidin-4-yl}nicotinamide]",0.926
5,"CC(C)Cc1cc(CN2CCC(NC(=O)c3ccc(-c4cccc(F)c4)nc3)CC2)n[nH]1 [Example 429, 6-(3-Fluorophenyl)-N-{1-[(5-isobutyl-1H-pyrazol-3-yl)methyl]piperidin-4-yl}nicotinamide]",1.12
6,"O=C(NC1CCN(Cc2ccc3cccc(F)c3n2)CC1)c1ccc(-c2cccc(F)c2)nc1 [Example 430, 6-(3-Fluorophenyl)-N-{1-[(8-fluoroquinolin-2-yl)methyl]piperidin-4-yl}nicotinamide]",1.2
7,"CCn1ccnc1CN1CCC(NC(=O)c2ccc(-c3cccc(F)c3)nc2)CC1 [Example 431, N-{1-[(1-Ethyl-1H-imidazol-2-yl)methyl]piperidin-4-yl}-6-(3-fluorophenyl)nicotinamide]",0.822
8,"Cc1c(CN2CCC(NC(=O)c3ccc(-c4cccc(F)c4)nc3)CC2)nc2ccccn12 [Example 432, 6-(3-Fluorophenyl)-N-{1-[(3-methylimidazo[1,2-a]pyridin-2-yl)methyl]piperidin-4-yl}nicotinamide]",0.962
9,"CC(C)c1csc(CN2CCC(NC(=O)c3ccc(-c4cccc(F)c4)nc3)CC2)n1 [Example 433, 6-(3-Fluorophenyl)-N-{1-[(4-isopropyl-1,3-thiazol-2-yl)methyl]piperidin-4-yl}nicotinamide]",0.401
10,"Cc1ccccc1-c1ncc(CN2CCC(NC(=O)c3ccc(-c4cccc(F)c4)nc3)CC2)cn1 [Example 434, 6-(3-Fluorophenyl)-N-(1-{[2-(2-methylphenyl)pyrimidin-5-yl]methyl}piperidin-4-yl)nicotinamide]",1.51
11,"Cc1cccc(-n2ccnc2CN2CCC(NC(=O)c3ccc(-c4cccc(F)c4)nc3)CC2)c1 [Example 435, 6-(3-Fluorophenyl)-N-(1-{[1-(3-methylphenyl)-1H-imidazol-2-yl]methyl}piperidin-4-yl)nicotinamide]",0.908
12,"O=C(NC1CCN(Cc2ccccc2Cn2cccn2)CC1)c1ccc(-c2cccc(F)c2)nc1 [Example 436, 6-(3-Fluorophenyl)-N-{1-[2-(1H-pyrazol-1-ylmethyl)benzyl]piperidin-4-yl}nicotinamide]",0.885
13,"COc1ccccc1-c1ncc(CN2CCC(NC(=O)c3ccc(-c4cccc(F)c4)nc3)CC2)cn1 [Example 437, 6-(3-Fluorophenyl)-N-(1-{[2-(2-methoxyphenyl)pyrimidin-5-yl]methyl}piperidin-4-yl)nicotinamide]",3.52
14,"Cc1ccc(-n2cccn2)c(CN2CCC(NC(=O)c3ccc(-c4cccc(F)c4)nc3)CC2)c1 [Example 438, 6-(3-Fluorophenyl)-N-{1-[5-methyl-2-(1H-pyrazol-1-yl)benzyl]piperidin-4-yl}nicotinamide]",0.417
15,"O=C(NC1CCN(Cc2c[nH]nc2-c2cccc(F)c2)CC1)c1ccc(-c2cccc(F)c2)nc1 [Example 439, 6-(3-Fluorophenyl)-N-(1-{[3-(3-fluorophenyl)-1H-pyrazol-4-yl]methyl}piperidin-4-yl)nicotinamide]",0.762
16,"COCCc1ncc(CN2CCC(NC(=O)c3ccc(-c4cccc(F)c4)nc3)CC2)cn1 [Example 440, 6-(3-Fluorophenyl)-N-(1-{[2-(2-methoxyethyl)pyrimidin-5-yl]methyl}piperidin-4-yl)nicotinamide]",1.96
17,"CCCc1ncc(CN2CCC(NC(=O)c3ccc(-c4cccc(F)c4)nc3)CC2)cn1 [Example 441, 6-(3-Fluorophenyl)-N-{1-[(2-propylpyrimidin-5-yl)methyl]piperidin-4-yl}nicotinamide]",2.58
18,"CCc1ncc(CN2CCC(NC(=O)c3ccc(-c4cccc(F)c4)nc3)CC2)cn1 [Example 442, N-{1-[(2-Ethylpyrimidin-5-yl)methyl]piperidin-4-yl}-6-(3-fluorophenyl)nicotinamide]",2.78
19,"Cc1ncc(CN2CCC(NC(=O)c3ccc(-c4cccc(F)c4)nc3)CC2)cn1 [Example 443, 6-(3-Fluorophenyl)-N-{1-[(2-methylpyrimidin-5-yl)methyl]piperidin-4-yl}nicotinamide]",1.59

row,Compound,IC50 [nM]
1,"Cc1nc(C)c(CN2CCC(NC(=O)c3ccc(-c4cccc(F)c4)nc3)CC2)nc1C [Example 444, 6-(3-Fluorophenyl)-N-{1-[(3,5,6-trimethylpyrazin-2-yl)methyl]piperidin-4-yl}nicotinamide]",0.135
2,"Cc1nc2ccc(Cl)cn2c1CN1CCC(NC(=O)c2ccc(-c3cccc(F)c3)nc2)CC1 [Example 445, N-{1-[(6-Chloro-2-methylimidazo[1,2-a]pyridin-3-yl)methyl]piperidin-4-yl}-6-(3-fluorophenyl)nicotinamide]",4.24
3,"Cc1ncc(CN2CCC(NC(=O)c3ccc(-c4cccc(F)c4)nc3)CC2)s1 [Example 446, 6-(3-Fluorophenyl)-N-{1-[(2-methyl-1,3-thiazol-5-yl)methyl]piperidin-4-yl}nicotinamide]",0.891
4,"COCn1c(CN2CCC(NC(=O)c3ccc(-c4cccc(F)c4)nc3)CC2)nc2ccccc21 [Example 447, 6-(3-Fluorophenyl)-N-(1-{[1-(methoxymethyl)-1H-benzimidazol-2-yl]methyl}piperidin-4-yl)nicotinamide]",1.1
5,"O=C(NC1CCN(Cc2nc3cccc4c3n2CCC4)CC1)c1ccc(-c2cccc(F)c2)nc1 [Example 448, N-[1-(5,6-Dihydro-4H-imidazo[4,51-ij]quinolin-2-ylmethyl)piperidin-4-yl]-6-(3-fluorophenyl)nicotinamide]",2.45
6,"Cn1c(CN2CCC(NC(=O)c3ccc(-c4cccc(F)c4)nc3)CC2)nc2cc(F)c(F)cc21 [Example 449, N-{1-[(5,6-Difluoro-1-methyl-1H-benzimidazol-2-yl)methyl]piperidin-4-yl}-6-(3-fluorophenyl)nicotinamide]",2.8
7,"O=C(NC1CCN(Cc2ccnc3cccnc23)CC1)c1ccc(-c2cccc(F)c2)nc1 [Example 450, 6-(3-Fluorophenyl)-N-[1-(1,5-naphthyridin-4-ylmethyl)piperidin-4-yl]nicotinamide]",2.05
8,"O=C(NC1CCN(Cc2ccnc3nccnc23)CC1)c1ccc(-c2cccc(F)c2)nc1 [Example 451, 6-(3-Fluorophenyl)-N-[1-(pyrido[2,3-b]pyrazin-8-ylmethyl)piperidin-4-yl]nicotinamide]",0.88
9,"O=C(NC1CCN(Cc2ccnc3ncccc23)CC1)c1ccc(-c2cccc(F)c2)nc1 [Example 452, 6-(3-Fluorophenyl)-N-[1-(1,8-naphthyridin-4-ylmethyl)piperidin-4-yl]nicotinamide]",0.724
10,"O=C(NC1CCN(Cc2ccc(CN3CCOCC3)cc2)CC1)c1ccc(-c2cccc(F)c2)nc1 [Example 453, 6-(3-Fluorophenyl)-N-{1-[4-(morpholin-4-ylmethyl)benzyl]piperidin-4-yl}nicotinamide]",1.42
11,"Cc1nnc(-c2ccc(CN3CCC(NC(=O)c4ccc(-c5cccc(F)c5)nc4)CC3)cc2)o1 [Example 454, 6-(3-Fluorophenyl)-N-{1-[4-(5-methyl-1,3,4-oxadiazol-2-yl)benzyl]piperidin-4-yl}nicotinamide]",0.82
12,"Cc1cnc(CN2CCC(NC(=O)c3ccc(-c4cccc(F)c4)nc3)CC2)cn1 [Example 455, 6-(3-Fluorophenyl)-N-{1-[(5-methylpyrazin-2-yl)methyl]piperidin-4-yl}nicotinamide]",1.34
13,"O=C(NC1CCN(Cc2nc3cccc4c3n2CC=C4)CC1)c1ccc(-c2cccc(F)c2)nc1 [Example 456, 6-(3-Fluorophenyl)-N-[1-(4H-imidazo[4,51-ij]quinolin-2-ylmethyl)piperidin-4-yl]nicotinamide]",2.05
14,"CCOC(=O)c1csc(CN2CCC(NC(=O)c3ccc(-c4cccc(F)c4)nc3)CC2)n1 [Example 457, Ethyl 2-{[4-({[6-(3-fluorophenyl)pyridin-3-yl]carbonyl}amino)piperidin-1-yl]methyl}-1,3-thiazole-4-carboxylate]",0.76
15,"C[C@@H]1Oc2ccc(CN3CCC(NC(=O)c4ccc(-c5cccc(F)c5)nc4)CC3)cc2[C@H]1C(=O)O [Example 458, (2S,3R)-5-{[4-({[6-(3-Fluorophenyl)pyridin-3-yl]carbonyl}amino)piperidin-1-yl]methyl}-2-methyl-2,3-dihydro-1-benzofuran-3-carboxylic acid]",1.78
16,"CCOc1ncccc1CN1CCC(NC(=O)c2ccc(-c3cccc(F)c3)nc2)CC1 [Example 459, N-{1-[(2-Ethoxypyridin-3-yl)methyl]piperidin-4-yl}-6-(3-fluorophenyl)nicotinamide]",0.721
17,"COc1ncccc1CN1CCC(NC(=O)c2ccc(-c3cccc(F)c3)nc2)CC1 [Example 460, 6-(3-Fluorophenyl)-N-{1-[(2-methoxypyridin-3-yl)methyl]piperidin-4-yl}nicotinamide]",1.28
18,"CC(C)Oc1ncccc1CN1CCC(NC(=O)c2ccc(-c3cccc(F)c3)nc2)CC1 [Example 461, 6-(3-Fluorophenyl)-N-{1-[(2-isopropoxypyridin-3-yl)methyl]piperidin-4-yl}nicotinamide]",0.239
19,"O=C(NC1CCN(Cc2cccnc2OCC2CC2)CC1)c1ccc(-c2cccc(F)c2)nc1 [Example 462, N-(1-{[2-(Cyclopropylmethoxy)pyridin-3-yl]methyl}piperidin-4-yl)-6-(3-fluorophenyl)nicotinamide]",0.264
